Results published in patent US20040232089A1, “Biocidal compounds for treating water” (VANETTA S.p.A., priority 2003, published 2004).

Legend:
Chlorella sp. = test: Inhibition of planktonic microalgae duplication; assay type: cell-based; details: after 96 hours of treatment
Experimental: This test was carried out by using the microalga Chlorella sp., it is a small (2-10 microns diameter) green single celled microalga with a spherical cell shape. This genus is capable of both autotrophic and heterotrophic growth which may contribute to its ability to rapidly overtake other algae in culture. In laboratory, Chlorella coltures are started by taking from the branchs, inoculates basis, about 10 ml of monospecific colture, and adding 700 ml of […] filtered sea-water, enriched with Walne colture medium and vitamins.
Flasks with algae are kept in a thermostatic room, at 20° C.±0,5; lighting is supplied by 30 watt fluorescent neon tubes and by a 18 watt Osram-fluora lamp, with a photoperiod 16:8 light:dark. Oxygenation is warranted by a continuous air flux in the flask, this is also a way to avoid cells sedimentation. Test was carried out in the thermostatic room, at 20° C., with a 16:8 light:dark cycle in glass test-tube. The tested product has been dissolved in the culture medium, at a double concentration respect to the final wanted. […] Test-tubes were aerated, and kept in thermostatic room for 96 hours; after this period of time an aliquot of each replicate for each concentration was taken, and cellular densities were counted using an haemocytometer.

[1] = Biodegradability OECD 301 A (92/69/EEC C4-A); details: 7 days after the beginning of the test
Experimental: In fact, based on data available with respect to the most similar compounds to the menadione derivatives disclosed herein, one would expect a degradability in the range of 0% (percentage calculated based on the initial mass expressed in mg/l) typical of menadione (2-methyl-1,4-naphthalenedione) and 17% (assessed after 28 days) typical of menadione sodium bisulphite (which calculation was performed in accordance with the guidelines OECD301 A attached to directive EEC 92/69/EEC C4-A).
Finally biodegradability was also evaluated according to standard 92/69/EEC C4-A. From the data, both MNB and MPB result to have a remarkably better biodegradability than 2-methyl-1,4-naphthalenedione and particularly than MSB.

Aeromonas sp. CH34 = test: Microdilution broth MIC/MBC; assay type: cell-based; details: 24 h at 25° C., dark
Experimental: (§1) b) Serial dilution test: the antibiotic activity is determined quantitatively by using the known sensitivity of a test strain towards an antibiotic which is expressed numerically as the minimal inhibitory concentration (MIC) and the minimal bactericidal concentration (MBC).
(§2) Procedure: serial dilutions of the antibiotic to be tested are pipetted into the antibiotic broth, this is then inoculated with a defined quantity of the relevant test strain (FIG. 4).
(§3) The Minimum Inhibitory Concentration (MIC) was defined as the lowest concentration of antibiotic which prevented visual turbidity after incubation.
(§4) The Minimum Bactericidal Concentration (MBC) is defined as the lowest concentration of an antibiotic killing the majority of a bacterial inoculum (99.9%, equivalent to a thousand-fold reduction of the inoculum). Method: Following a broth dilution MIC test, from each tube in the dilution series a defined volume (20 μL) is spread onto plates without antibiotics. To minimize the carry-over effect of antibiotic from the test tubes, let the drop “dry” before the inoculum is spread over the surface (a section of the agar plate). The plates were incubate overnight (longer for slow growing bacteria) and then counted the number of colonies growing from each of the test tubes. The number of colonies corresponding to a thousand-fold reduction (MBC) can be calculated if the colony count of the start inoculum is known.
(§5) The microdilution broth method was used to evaluate the MIC and the MBC against 15 aerobic bacteria isolated from culture collection and seawater. Antimicrobial dilutions were performed using Mueller Hinton Broth supplemented with divalent cations. The tested product was dissolved in the medium to obtain a final range concentration between 0,12 to 64 mg/l.
(§6) Antimicrobial assays were performed in dark, and results were read after 24 h of incubation at 25° C. Each test towards the same indicator strain was performed in three replicates.
(§7) The assayed strains were environment isolates identified by an internal number or standard strains identified by the ATCC or NCIMB accession number.

[2] = test system: Bacillus licheniformis NCIMB 1525; test: Microdilution broth MIC/MBC; assay type: cell-based; details: 24 h at 25° C., dark
Experimental: as §1, §2, §3, §4, §5, §6, §7

[3] = test system: Bacillus subtilis ATCC 10774; test: Microdilution broth MIC/MBC; assay type: cell-based; details: 24 h at 25° C., dark
Experimental: as §1, §2, §3, §4, §5, §6, §7

Corynebacterium sp. CT15 = test: Microdilution broth MIC/MBC; assay type: cell-based; details: 24 h at 25° C., dark
Experimental: as §1, §2, §3, §4, §5, §6, §7

[4] = test system: Escherichia coli ATCC 25922; test: Microdilution broth MIC/MBC; assay type: cell-based; details: 24 h at 25° C., dark
Experimental: as §1, §2, §3, §4, §5, §6, §7

Micrococcus sp. AD10 = test: Microdilution broth MIC/MBC; assay type: cell-based; details: 24 h at 25° C., dark
Experimental: as §1, §2, §3, §4, §5, §6, §7

Micrococcus sp. AE11 = test: Microdilution broth MIC/MBC; assay type: cell-based; details: 24 h at 25° C., dark
Experimental: as §1, §2, §3, §4, §5, §6, §7

[5] = test system: Pseudomonas aeruginosa ATCC 10145; test: Microdilution broth MIC/MBC; assay type: cell-based; details: 24 h at 25° C., dark
Experimental: as §1, §2, §3, §4, §5, §6, §7

[6] = test system: Pseudomonas elongata NCIMB 1141; test: Microdilution broth MIC/MBC; assay type: cell-based; details: 24 h at 25° C., dark
Experimental: as §1, §2, §3, §4, §5, §6, §7

[7] = test system: Pseudomonas putida NCIMB 1960; test: Microdilution broth MIC/MBC; assay type: cell-based; details: 24 h at 25° C., dark
Experimental: as §1, §2, §3, §4, §5, §6, §7

[8] = test system: Vibrio parahaemolyticus AD19; test: Microdilution broth MIC/MBC; assay type: cell-based; details: 24 h at 25° C., dark
Experimental: as §1, §2, §3, §4, §5, §6, §7

Vibrio sp. AD18 = test: Microdilution broth MIC/MBC; assay type: cell-based; details: 24 h at 25° C., dark
Experimental: as §1, §2, §3, §4, §5, §6, §7

Vibrio sp. AE7 = test: Microdilution broth MIC/MBC; assay type: cell-based; details: 24 h at 25° C., dark
Experimental: as §1, §2, §3, §4, §5, §6, §7

Vibrio sp. CH45 = test: Microdilution broth MIC/MBC; assay type: cell-based; details: 24 h at 25° C., dark
Experimental: as §1, §2, §3, §4, §5, §6, §7

[9] = test system: nauplii of Artemia salina; test: Artemia efficacy test
Experimental: This efficacy test was carried out by using nauplii of Artemia salina (Crustacea: Anacostraca).
Cysts reactivation has been carried out 24 hours before the execution of tests. […] Beakers, hermetically closed and aerated with pre-filtered air (0,22 μm), were incubated for 24 hours at 25° C., without photoperiod. For the tests E3 developing stage nauplii were employed (24 hours after cysts reactivation). Nauplii were divided from not-opened cysts by exploiting their positive fototactism: a light beam is placed near the beaker, obtaining a considerable concentration of organisms, that can be taken by using a Pasteur pipette. The following MNB concentrations have been tested: 0-0.05-0.1-0.5-1-5-10 ppm (mg/L). These solutions have been prepared immediately before carrying out the tests using natural filtered (0.22 μm) sea water (NFSW). For tests, multiwell plates (25 wells) have been used, each well has a capacity of 4 ml. In the first column there was the control solution (water without product), and in the following the different concentrations in increasing order. In each well about 20-25 individuals were added, each concentration was repeated in four replicates. Multiwell plates, hermetically closed with parafilm and lid, were incubated at dark for 24-48 hours at 25° C. […] Larvae were considered dead when there was completely no movement for 10 seconds.
Mortality percentage was calculated as the mean of the four replicates for each concentration. Data were analysed by using the Probits method, in order to calculate the lethal concentration for the 50% of the population (LC50).

CC1(S(=O)(=O)O)CC(=O)c2ccccc2C1=O.NC(=O)c1cccnc1 (centres unmarked) [MNB, menadione nicotinamide bisulphite]
LC1 (Chlorella sp.): 0.002 mg/L
LC50 (Chlorella sp.): 0.055 µg/mL
degradability relative to that of MSB [1]: eight
MBC (Aeromonas sp. CH34): 64 µg/mL
MIC (Aeromonas sp. CH34): 32 µg/mL
MBC [2]: 32 µg/mL
MIC [2]: 16 µg/mL
MBC [3]: 32 µg/mL
MIC [3]: 12 µg/mL
MBC (Corynebacterium sp. CT15): 16 µg/mL
MIC (Corynebacterium sp. CT15): 8 µg/mL
MBC [4]: >64 µg/mL
MIC [4]: >64 µg/mL
MBC (Micrococcus sp. AD10): 32 µg/mL
MIC (Micrococcus sp. AD10): 16 µg/mL
MBC (Micrococcus sp. AE11): 16 µg/mL
MIC (Micrococcus sp. AE11): 8 µg/mL
MBC [5]: >64 µg/mL
MIC [5]: >64 µg/mL
MBC [6]: 16 µg/mL
MIC [6]: 8 µg/mL
MBC [7]: >64 µg/mL
MIC [7]: >64 µg/mL
MBC [8]: 4 µg/mL
MIC [8]: 1 µg/mL
MBC (Vibrio sp. AD18): 32 µg/mL
MIC (Vibrio sp. AD18): 16 µg/mL
MBC (Vibrio sp. AE7): 64 µg/mL
MIC (Vibrio sp. AE7): 32 µg/mL
MBC (Vibrio sp. CH45): 16 µg/mL
MIC (Vibrio sp. CH45): 16 µg/mL
LC1 ([9]; 24 hours): 3.170 mg/L
LC50 ([9]; 24 hours): 7.625 µg/mL
LC1 ([9]; 48 hours): 0.548 mg/L
LC50 ([9]; 48 hours): 1.840 µg/mL
